Test results from ChEMBL document CHEMBL4418495, “Entpd5 inhibitors” (2012).
The source made the active and inactive calls. How the calls were made is not given here.

These compounds were tested against T1, Nucleoside diphosphate phosphatase ENTPD5 (Homo sapiens) (UniProt O75356) (assay: Inhibition of human recombinant ENTPD5 expressed in insect cells assessed as reduction in UDP hydrolysis at 1 uM incubated for 1 hr in presence of UMP, GTP and ATP by Escherichia coli UMP kinase pyrH catalyzed UMP phosphorylation coupled luciferase assay).
T1 sequence (whole entry): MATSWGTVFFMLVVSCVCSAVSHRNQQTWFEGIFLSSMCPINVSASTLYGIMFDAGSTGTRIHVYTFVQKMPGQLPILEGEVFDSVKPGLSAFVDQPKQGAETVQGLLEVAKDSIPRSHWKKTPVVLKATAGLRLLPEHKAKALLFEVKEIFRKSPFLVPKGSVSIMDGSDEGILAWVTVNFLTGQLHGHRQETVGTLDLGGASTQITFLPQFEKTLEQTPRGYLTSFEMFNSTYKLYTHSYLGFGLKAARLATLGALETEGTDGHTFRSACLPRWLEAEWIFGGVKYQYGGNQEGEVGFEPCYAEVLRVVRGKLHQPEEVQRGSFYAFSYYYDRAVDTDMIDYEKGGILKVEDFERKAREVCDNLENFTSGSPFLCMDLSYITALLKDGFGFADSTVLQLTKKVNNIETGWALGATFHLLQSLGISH

Row | Compound | inhibition
1 | COc1ccc(OC)c(-c2cn3c(CCN(Cc4ccco4)S(=O)(=O)c4ccc5ccccc5c4)csc3n2)c1 | Active
2 | CN1C(=O)C(=Cc2ccc(Sc3ccccc3)o2)C(=O)N(C)C1=S | Active
3 | O=C1NC(=S)NC(=O)C1=Cc1cn(-c2ccccc2)nc1-c1cc2c(ccc3ccccc32)oc1=O | Active
4 | CC1=C(C(=O)OC(C)C)C(c2cn(-c3ccccc3)nc2-c2ccc(Cl)cc2)C(C(=O)OC(C)C)=C(C)N1 | Active
5 | O=C(C(c1ccccc1)c1ccccc1)N(CCc1csc2nc(-c3ccc4ccccc4c3)cn12)Cc1ccco1 | Active
6 | O=C1NC(=O)C(=Cc2cn(-c3ccccc3)nc2-c2ccc(F)cc2)C(=O)N1 | Active
7 | Nc1nc(SCc2nnc(Nc3ccccc3)s2)nc2sc3c(c12)CCC3 | Active
8 | O=C1/C(=C/c2ccc(-c3cccc(C(F)(F)F)c3)o2)SC(=S)N1Cc1ccco1 | Active
9 | Cc1cc(/C=C2\C(=O)NC(=S)N(c3cccc(Cl)c3)C2=O)c(C)n1-c1ccc(Br)cc1 | Active
10 | CCN(CC)c1ccc2cc(C(N)=O)/c(=N/c3cccc4ccccc34)oc2c1 | Active
11 | COc1cccc(OCCn2cc(/C=C3/C(=N)N4N=C(C(C)C)SC4=NC3=O)c3ccccc32)c1 | Active
12 | O=C(Nc1ccc(Oc2ccc(NC(=O)c3cccs3)cc2)cc1)c1cccs1 | Active
13 | N#Cc1ccccc1COc1ccc(/C=C2/SC(=S)NC2=O)cc1Br | Active
14 | S=C(NCc1ccccc1)Nc1ccc2nc(-c3ccco3)c(-c3ccco3)nc2c1 | Active
15 | COc1cc(-c2ccc(/C=C/c3[nH]c(=O)[nH]c(=O)c3[N+](=O)[O-])o2)c(OC)cc1Cl | Active
16 | Cc1ccc(CNC(=O)c2cc(-c3ccc(Br)s3)nc3ccccc23)o1 | Active

Each compound was assayed against T1, Nucleoside diphosphate phosphatase ENTPD5 (Homo sapiens) (assay: Inhibition of human recombinant ENTPD5 expressed in insect cells assessed as reduction in UDP hydrolysis up to 10 uM incubated for 1 hr in presence of UMP, GTP and ATP by Escherichia coli UMP kinase pyrH catalyzed UMP phosphorylation coupled luciferase assay).

Row | Compound | inhibition
17 | COc1ccc(OC)c(-c2cn3c(CCN(Cc4ccco4)S(=O)(=O)c4ccc5ccccc5c4)csc3n2)c1 | Dose-dependent effect
18 | CN1C(=O)C(=Cc2ccc(Sc3ccccc3)o2)C(=O)N(C)C1=S | Dose-dependent effect
19 | O=C1NC(=S)NC(=O)C1=Cc1cn(-c2ccccc2)nc1-c1cc2c(ccc3ccccc32)oc1=O | Dose-dependent effect
20 | CC1=C(C(=O)OC(C)C)C(c2cn(-c3ccccc3)nc2-c2ccc(Cl)cc2)C(C(=O)OC(C)C)=C(C)N1 | Dose-dependent effect
21 | O=C(C(c1ccccc1)c1ccccc1)N(CCc1csc2nc(-c3ccc4ccccc4c3)cn12)Cc1ccco1 | Dose-dependent effect
22 | O=C1NC(=O)C(=Cc2cn(-c3ccccc3)nc2-c2ccc(F)cc2)C(=O)N1 | Dose-dependent effect
23 | Nc1nc(SCc2nnc(Nc3ccccc3)s2)nc2sc3c(c12)CCC3 | Dose-dependent effect
24 | O=C1/C(=C/c2ccc(-c3cccc(C(F)(F)F)c3)o2)SC(=S)N1Cc1ccco1 | Dose-dependent effect
25 | Cc1cc(/C=C2\C(=O)NC(=S)N(c3cccc(Cl)c3)C2=O)c(C)n1-c1ccc(Br)cc1 | Dose-dependent effect
26 | CCN(CC)c1ccc2cc(C(N)=O)/c(=N/c3cccc4ccccc34)oc2c1 | Dose-dependent effect
27 | COc1cccc(OCCn2cc(/C=C3/C(=N)N4N=C(C(C)C)SC4=NC3=O)c3ccccc32)c1 | Dose-dependent effect
28 | O=C(Nc1ccc(Oc2ccc(NC(=O)c3cccs3)cc2)cc1)c1cccs1 | Dose-dependent effect
29 | N#Cc1ccccc1COc1ccc(/C=C2/SC(=S)NC2=O)cc1Br | Dose-dependent effect
30 | S=C(NCc1ccccc1)Nc1ccc2nc(-c3ccco3)c(-c3ccco3)nc2c1 | Dose-dependent effect
31 | COc1cc(-c2ccc(/C=C/c3[nH]c(=O)[nH]c(=O)c3[N+](=O)[O-])o2)c(OC)cc1Cl | Dose-dependent effect
32 | Cc1ccc(CNC(=O)c2cc(-c3ccc(Br)s3)nc3ccccc23)o1 | Dose-dependent effect

What follows are compounds tested against T2, Uridylate kinase (Escherichia coli (strain K12)) (UniProt P0A7E9) (assay: Inhibition of recombinant Escherichia coli UMP kinase pyrH catalyzed UMP phosphorylation in presence of GTP and ATP incubated for 1 hr by luminescence based assay).
T2 sequence (whole entry): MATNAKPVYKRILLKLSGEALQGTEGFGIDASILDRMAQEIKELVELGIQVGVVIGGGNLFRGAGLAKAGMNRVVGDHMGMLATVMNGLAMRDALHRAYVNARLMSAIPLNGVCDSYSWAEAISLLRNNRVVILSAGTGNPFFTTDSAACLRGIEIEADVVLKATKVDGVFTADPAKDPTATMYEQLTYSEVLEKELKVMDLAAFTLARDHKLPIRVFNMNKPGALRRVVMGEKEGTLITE

Row | Compound | inhibition
33 | COc1ccc(OC)c(-c2cn3c(CCN(Cc4ccco4)S(=O)(=O)c4ccc5ccccc5c4)csc3n2)c1 | inactive
34 | CN1C(=O)C(=Cc2ccc(Sc3ccccc3)o2)C(=O)N(C)C1=S | inactive
35 | O=C1NC(=S)NC(=O)C1=Cc1cn(-c2ccccc2)nc1-c1cc2c(ccc3ccccc32)oc1=O | inactive
36 | CC1=C(C(=O)OC(C)C)C(c2cn(-c3ccccc3)nc2-c2ccc(Cl)cc2)C(C(=O)OC(C)C)=C(C)N1 | inactive
37 | O=C(C(c1ccccc1)c1ccccc1)N(CCc1csc2nc(-c3ccc4ccccc4c3)cn12)Cc1ccco1 | inactive
38 | O=C1NC(=O)C(=Cc2cn(-c3ccccc3)nc2-c2ccc(F)cc2)C(=O)N1 | inactive
39 | Nc1nc(SCc2nnc(Nc3ccccc3)s2)nc2sc3c(c12)CCC3 | inactive
40 | O=C1/C(=C/c2ccc(-c3cccc(C(F)(F)F)c3)o2)SC(=S)N1Cc1ccco1 | inactive
41 | Cc1cc(/C=C2\C(=O)NC(=S)N(c3cccc(Cl)c3)C2=O)c(C)n1-c1ccc(Br)cc1 | inactive
42 | CCN(CC)c1ccc2cc(C(N)=O)/c(=N/c3cccc4ccccc34)oc2c1 | inactive
43 | COc1cccc(OCCn2cc(/C=C3/C(=N)N4N=C(C(C)C)SC4=NC3=O)c3ccccc32)c1 | inactive
44 | O=C(Nc1ccc(Oc2ccc(NC(=O)c3cccs3)cc2)cc1)c1cccs1 | inactive
45 | N#Cc1ccccc1COc1ccc(/C=C2/SC(=S)NC2=O)cc1Br | inactive
46 | S=C(NCc1ccccc1)Nc1ccc2nc(-c3ccco3)c(-c3ccco3)nc2c1 | inactive
47 | COc1cc(-c2ccc(/C=C/c3[nH]c(=O)[nH]c(=O)c3[N+](=O)[O-])o2)c(OC)cc1Cl | inactive
48 | Cc1ccc(CNC(=O)c2cc(-c3ccc(Br)s3)nc3ccccc23)o1 | inactive

Each compound was assayed against T1, Nucleoside diphosphate phosphatase ENTPD5 (Homo sapiens) (assay: Inhibition of human recombinant ENTPD5 expressed in insect cells assessed as reduction in reduction in UDP hydrolysis by measuring inorganic phosphate release incubated for 1 hr by malachite green based assay).

Row | Compound | inhibition
49 | COc1ccc(OC)c(-c2cn3c(CCN(Cc4ccco4)S(=O)(=O)c4ccc5ccccc5c4)csc3n2)c1 | Active
50 | CN1C(=O)C(=Cc2ccc(Sc3ccccc3)o2)C(=O)N(C)C1=S | Active
51 | O=C1NC(=S)NC(=O)C1=Cc1cn(-c2ccccc2)nc1-c1cc2c(ccc3ccccc32)oc1=O | Active
52 | CC1=C(C(=O)OC(C)C)C(c2cn(-c3ccccc3)nc2-c2ccc(Cl)cc2)C(C(=O)OC(C)C)=C(C)N1 | Active
53 | O=C(C(c1ccccc1)c1ccccc1)N(CCc1csc2nc(-c3ccc4ccccc4c3)cn12)Cc1ccco1 | Active
54 | O=C1NC(=O)C(=Cc2cn(-c3ccccc3)nc2-c2ccc(F)cc2)C(=O)N1 | Active
55 | Nc1nc(SCc2nnc(Nc3ccccc3)s2)nc2sc3c(c12)CCC3 | Active
56 | O=C1/C(=C/c2ccc(-c3cccc(C(F)(F)F)c3)o2)SC(=S)N1Cc1ccco1 | Active
57 | Cc1cc(/C=C2\C(=O)NC(=S)N(c3cccc(Cl)c3)C2=O)c(C)n1-c1ccc(Br)cc1 | Active
58 | CCN(CC)c1ccc2cc(C(N)=O)/c(=N/c3cccc4ccccc34)oc2c1 | Active
59 | COc1cccc(OCCn2cc(/C=C3/C(=N)N4N=C(C(C)C)SC4=NC3=O)c3ccccc32)c1 | Active
60 | O=C(Nc1ccc(Oc2ccc(NC(=O)c3cccs3)cc2)cc1)c1cccs1 | Active
61 | N#Cc1ccccc1COc1ccc(/C=C2/SC(=S)NC2=O)cc1Br | Active
62 | S=C(NCc1ccccc1)Nc1ccc2nc(-c3ccco3)c(-c3ccco3)nc2c1 | Active
63 | COc1cc(-c2ccc(/C=C/c3[nH]c(=O)[nH]c(=O)c3[N+](=O)[O-])o2)c(OC)cc1Cl | Active
64 | Cc1ccc(CNC(=O)c2cc(-c3ccc(Br)s3)nc3ccccc23)o1 | Active
